# Results reported in PubChem BioAssay AID1195 (EPA DSSTox, 2008).
# Test system: human maximum recommended daily dose, FDA database
# Test: DSSTox (FDAMDD) FDA Maximum (Recommended) Daily Dose Database
# Conditions: active compounds read low
# Outline: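 MRDD values come from clinical trials with daily oral dosing, usually for 3–12 months, for the average adult, in mg/day converted to mg/kg-bw/day assuming 60 kg. Antineoplastic mg/m2 doses are divided by 37. Activity score maps log10(1/MRDD mmol) onto 1–100.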
# [1] = TherapeuticCategory: diagnostic aid
# [2] = TherapeuticCategory: antibacterial
# [3] = TherapeuticCategory: sedative, hypnotic
# [4] = TherapeuticCategory: anticholinergic
# [5] = TherapeuticCategory: narcotic analgesic
# [6] = TherapeuticCategory: cardiotonic
# [7] = TherapeuticCategory: bronchodilator, tocolytic
# [8] = TherapeuticCategory: mineralcorticoid
# [9] = TherapeuticCategory: antineoplastic
# [10] = TherapeuticCategory: antidepressant
# [11] = TherapeuticCategory: progestogen
# [12] = TherapeuticCategory: antihypertensive
# [13] = TherapeuticCategory: glucocorticoid
# [14] = TherapeuticCategory: antitussive
structure (smiles),measurement,setting,value
CC(=O)Nc1c(I)c(NC(C)=O)c(I)c(C(=O)O)c1I,maximum recommended daily dose (mmol/kg-bw/day),[1],0.761
CC(C)Nc1cccnc1N1CCN(C(=O)c2cc3cc(NS(C)(=O)=O)ccc3[nH]2)CC1,maximum recommended daily dose (mmol/kg-bw/day),TherapeuticCategory: antiviral,0.0146
CC1(C)S[C@@H]2[C@H](NC(=O)[C@H](C(=O)O)c3ccsc3)C(=O)N2[C@H]1C(=O)O,maximum recommended daily dose (mmol/kg-bw/day),[2],0.78
CCC(=O)c1ccc2c(c1)N(CC(C)N(C)C)c1ccccc1S2 (stereo not drawn),maximum recommended daily dose (mmol/kg-bw/day),[3],0.00245
CN[C@@H](C)[C@@H](O)c1ccccc1,maximum recommended daily dose (mmol/kg-bw/day),"TherapeuticCategory: l-form as bronchodilator, d-form as decongestant",0.0242
C[N+]1(C)CCC(=C(c2ccccc2)c2ccccc2)CC1,maximum recommended daily dose (mmol/kg-bw/day),[4],0.0341
COc1cc([C@@H]2Oc3cc([C@H]4Oc5cc(O)cc(O)c5C(=O)[C@@H]4O)ccc3O[C@H]2CO)ccc1O,maximum recommended daily dose (mmol/kg-bw/day),TherapeuticCategory: treatment of liver disfunction,0.0145
CC(=O)c1ccc2c(c1)N(CCCN(C)C)c1ccccc1S2,maximum recommended daily dose (mmol/kg-bw/day),TherapeuticCategory: tranquilizer,0.000459
CN1CC[C@]23c4c5ccc(O)c4O[C@H]2C(=O)CC[C@@]3(O)[C@H]1C5,maximum recommended daily dose (mmol/kg-bw/day),[5],0.000498
CCCN[C@H]1CCc2nc(N)sc2C1,maximum recommended daily dose (mmol/kg-bw/day),"TherapeuticCategory: antiparkinsonian, dopamine receptor agonist",0.000473
C[C@H]1O[C@@H](O[C@H]2[C@@H](O)C[C@H](O[C@H]3[C@@H](O)C[C@H](O[C@H]4CC[C@@]5(C)[C@H](CC[C@@H]6[C@@H]5C[C@@H](O)[C@]5(C)[C@@H](C7=CC(=O)OC7)CC[C@]65O)C4)O[C@@H]3C)O[C@@H]2C)C[C@H](O)[C@@H]1O,maximum recommended daily dose (mmol/kg-bw/day),[6],1.28e-08
CC(C)(C)NCC(O)c1ccc(O)c(CO)c1 (stereo not drawn),maximum recommended daily dose (mmol/kg-bw/day),[7],0.00223
CC(=O)OCC(=O)[C@H]1CC[C@H]2[C@@H]3CCC4=CC(=O)CC[C@]4(C)[C@H]3CC[C@]12C,maximum recommended daily dose (mmol/kg-bw/day),[8],0.00448
O=P1(N(CCCl)CCCl)NCCCO1 (stereo not drawn),maximum recommended daily dose (mmol/kg-bw/day),[9],0.0192
COc1ccc(CC2c3cc(OC)c(OC)cc3CC[N+]2(C)CCC(=O)OCCCCCOC(=O)CC[N+]2(C)CCc3cc(OC)c(OC)cc3C2Cc2ccc(OC)c(OC)c2)cc1OC (stereo not drawn),maximum recommended daily dose (mmol/kg-bw/day),TherapeuticCategory: skeletal muscle relaxant,0.000402
N[C@@H](Cc1ccc(N(CCCl)CCCl)cc1)C(=O)O,maximum recommended daily dose (mmol/kg-bw/day),[9],0.000328
COc1ccc2c3c1O[C@H]1C(=O)CC[C@@]4(O)[C@@H](C2)N(C)CC[C@]314,maximum recommended daily dose (mmol/kg-bw/day),[5],0.0169
COc1ccc2c3c1O[C@H]1[C@@H](O)CC[C@H]4[C@@H](C2)N(C)CC[C@@]341,maximum recommended daily dose (mmol/kg-bw/day),"TherapeuticCategory: narcotic analgesic, antitussive",0.0106
CC(=O)OC[C@H]1O[C@@H](n2ncc(=O)[nH]c2=O)[C@H](OC(C)=O)[C@@H]1OC(C)=O,maximum recommended daily dose (mmol/kg-bw/day),"TherapeuticCategory: antineoplastic, antipsoriatic",0.458
CO/N=C(/C(=O)N[C@@H]1C(=O)N2C(C(=O)OC(C)OC(=O)C(C)(C)OC)=C(COC(N)=O)CS[C@H]12)c1ccco1 (stereo partly drawn),maximum recommended daily dose (mmol/kg-bw/day),[2],0.0294
CCOc1c(N2CCOCC2)cnn(C)c1=O,maximum recommended daily dose (mmol/kg-bw/day),"TherapeuticCategory: analgesic, anti inflammatory",0.0139
CC(O)C(=O)O (stereo not drawn),maximum recommended daily dose (mmol/kg-bw/day),TherapeuticCategory: acidulant,1.11
CC(C)(C)NCC(O)c1cc(Cl)c(N)c(Cl)c1 (stereo not drawn),maximum recommended daily dose (mmol/kg-bw/day),TherapeuticCategory: antiasthmatic,3.61e-06
CN(C)CCOc1ccc(/C(=C(/CCCl)c2ccccc2)c2ccccc2)cc1,maximum recommended daily dose (mmol/kg-bw/day),"TherapeuticCategory: antiestrogen, antineoplastic",0.0082
CCN1CCCC1CNC(=O)c1cc(S(=O)(=O)CC)ccc1OC (stereo not drawn),maximum recommended daily dose (mmol/kg-bw/day),[10],0.0564
CC1NCCOC1c1ccccc1 (stereo not drawn),maximum recommended daily dose (mmol/kg-bw/day),"TherapeuticCategory: anorexic, CNS stimulant",0.00705
O=C(O)Cn1cc(I)c(=O)c(I)c1,maximum recommended daily dose (mmol/kg-bw/day),[1],0.196
O=C(O)c1[nH]n(-c2ccc(S(=O)(=O)O)cc2)c(=O)c1N=Nc1ccc(S(=O)(=O)O)cc1,maximum recommended daily dose (mmol/kg-bw/day),TherapeuticCategory: dye,0.014
O=C(O)CCC(=O)O,maximum recommended daily dose (mmol/kg-bw/day),TherapeuticCategory: antiulcerative,0.847
OCc1cccnc1,maximum recommended daily dose (mmol/kg-bw/day),TherapeuticCategory: vasodilator,0.0458
C#C[C@]1(O)CC[C@H]2[C@@H]3CCC4=CC(=O)CC[C@@H]4[C@H]3CC[C@@]21C,maximum recommended daily dose (mmol/kg-bw/day),[11],5.6e-05
CCNNC(=O)[C@@H]1[C@H](c2cc(OC)c(OC)c(OC)c2)c2cc3c(cc2[C@H](O)[C@H]1CO)OCO3,maximum recommended daily dose (mmol/kg-bw/day),[9],0.00702
C#CC(O)(/C=C\Cl)CC (stereo not drawn),maximum recommended daily dose (mmol/kg-bw/day),[3],0.115
NC(=O)CS(=O)C(c1ccccc1)c1ccccc1 (stereo not drawn),maximum recommended daily dose (mmol/kg-bw/day),"TherapeuticCategory: CNS stimulant, adrenergic",0.0122
CCOC(=O)CCCCCCCCC(C)c1cccc(I)c1 (stereo not drawn),maximum recommended daily dose (mmol/kg-bw/day),[1],0.3
Cc1nc(NS(=O)(=O)c2ccc(N)cc2)oc1C,maximum recommended daily dose (mmol/kg-bw/day),[2],0.125
O=c1c(CO)c/c(=N/Nc2ccc(S(=O)(=O)O)c3ccccc23)c(=O)/c1=N/Nc1ccc(S(=O)(=O)O)c2ccccc12,maximum recommended daily dose (mmol/kg-bw/day),TherapeuticCategory: food additive,0.0023
CCN1C(=O)NC(c2ccccc2)C1=O (stereo not drawn),maximum recommended daily dose (mmol/kg-bw/day),TherapeuticCategory: anticonvulsant,0.245
CC(=O)OCC(=O)[C@@]1(O)CC[C@H]2[C@@H]3CCC4=CC(=O)CC[C@]4(C)[C@@]3(F)[C@@H](O)C[C@@]21C,maximum recommended daily dose (mmol/kg-bw/day),[8],3.95e-06
CCCCC1=NC2(CCCC2)C(=O)N1Cc1ccc(-c2ccccc2-c2nn[nH]n2)cc1,maximum recommended daily dose (mmol/kg-bw/day),[12],0.0117
CCCC(=O)O[C@]1(C(=O)COC(=O)CC)[C@@H](C)C[C@H]2[C@@H]3CCC4=CC(=O)C=C[C@]4(C)[C@@]3(F)[C@@H](O)C[C@@]21C,maximum recommended daily dose (mmol/kg-bw/day),[13],0.000289
C[C@]12CC[C@@H]3c4ccc(OC(=O)c5ccccc5)cc4CC[C@H]3[C@@H]1CC[C@@H]2O,maximum recommended daily dose (mmol/kg-bw/day),TherapeuticCategory: estrogen,0.00133
CCN(CC)CC#CCOC(=O)C(O)(c1ccccc1)C1CCCCC1 (stereo not drawn),maximum recommended daily dose (mmol/kg-bw/day),[4],0.000932
CO/N=C(/C(=O)N[C@@H]1C(=O)N2C(C(=O)O)=C(COC(C)=O)CS[C@H]12)c1csc(N)n1,maximum recommended daily dose (mmol/kg-bw/day),[2],0.439
CN(C)CCN1C(=O)c2ccccc2N(C)c2ccccc21,maximum recommended daily dose (mmol/kg-bw/day),[10],0.0406
COc1ccc2c(c1OC)C(=O)O[C@@H]2[C@H]1c2c(cc3c(c2OC)OCO3)CCN1C,maximum recommended daily dose (mmol/kg-bw/day),[14],0.00605
CC(CN(C)C)CN1c2ccccc2Sc2ccccc21 (stereo not drawn),maximum recommended daily dose (mmol/kg-bw/day),TherapeuticCategory: antipruritic,0.0056
Cn1cc[nH]c1=S,maximum recommended daily dose (mmol/kg-bw/day),TherapeuticCategory: antihyperthyroid,0.00876
CCOc1ccc(Cc2nccc3cc(OCC)c(OCC)cc23)cc1OCC,maximum recommended daily dose (mmol/kg-bw/day),TherapeuticCategory: antispasmodic,0.0253
O=C1NCC2(CCN(CCc3ccccc3)CC2)O1,maximum recommended daily dose (mmol/kg-bw/day),"TherapeuticCategory: bronchodilator, alpha adrenergic blocker",0.0307
CNC[C@H](O)c1cccc(O)c1,maximum recommended daily dose (mmol/kg-bw/day),"TherapeuticCategory: mydriatic, decongestant",0.00498
CC(Cc1ccc(O)cc1)NCC(O)c1cc(O)cc(O)c1 (stereo not drawn),maximum recommended daily dose (mmol/kg-bw/day),[7],8.8e-05
Cc1cc(C)nc(NS(=O)(=O)c2ccc(N)cc2)n1,maximum recommended daily dose (mmol/kg-bw/day),[2],0.18
CCN(CC)Cc1cc(Nc2ccnc3cc(Cl)ccc23)ccc1O,maximum recommended daily dose (mmol/kg-bw/day),TherapeuticCategory: antimalarial,0.00936
CCN(CC)CCOCCOC(=O)C1(c2ccccc2)CCCC1,maximum recommended daily dose (mmol/kg-bw/day),[14],0.006
NC(CSCC(=O)O)C(=O)O (stereo not drawn),maximum recommended daily dose (mmol/kg-bw/day),"TherapeuticCategory: mucolytic, expectorant",0.209
Nc1nc2c(ncn2COCCO)c(=O)[nH]1,maximum recommended daily dose (mmol/kg-bw/day),TherapeuticCategory: antiviral,0.0591
CC(=O)O[C@H]1C[C@H](O[C@H]2[C@@H](O)C[C@H](O[C@H]3[C@@H](O)C[C@H](OC4CC[C@@]5(C)C(CC[C@@H]6[C@@H]5CC[C@]5(C)[C@@H](C7=CC(=O)OC7)[C@@H](O)C[C@]65O)C4)O[C@@H]3C)O[C@@H]2C)O[C@H](C)[C@H]1O[C@@H]1O[C@H](CO)[C@@H](O)[C@H](O)[C@H]1O (stereo partly drawn),maximum recommended daily dose (mmol/kg-bw/day),[6],3.38e-05
NCCCNCCSP(=O)(O)O,maximum recommended daily dose (mmol/kg-bw/day),TherapeuticCategory: mucolytic,0.115
O=C(CCBr)N1CCN(C(=O)CCBr)CC1,maximum recommended daily dose (mmol/kg-bw/day),[9],0.00843
CC(=O)[C@@]1(O)CC[C@H]2[C@@H]3C=C(Cl)C4=CC(=O)CC[C@]4(C)[C@H]3CC[C@@]21C,maximum recommended daily dose (mmol/kg-bw/day),"TherapeuticCategory: progestogen, antineoplastic",9.18e-05
CCC(C)C(C)(COC(N)=O)COC(N)=O (stereo not drawn),maximum recommended daily dose (mmol/kg-bw/day),[12],0.0861
NC(Cc1ccccc1)C(=O)O (stereo not drawn),maximum recommended daily dose (mmol/kg-bw/day),[2],0.605
C#C[C@]1(OC(C)=O)CC[C@H]2[C@@H]3CCC4=C[C@@H](OC(C)=O)CC[C@@H]4[C@H]3CC[C@@]21C,maximum recommended daily dose (mmol/kg-bw/day),[11],4.34e-05
CCOC(=O)[C@]1(c2ccccc2)CCC=C[C@H]1N(C)C,maximum recommended daily dose (mmol/kg-bw/day),[5],0.0122
Cc1nccn1CC1CCc2c(c3ccccc3n2C)C1=O (stereo not drawn),maximum recommended daily dose (mmol/kg-bw/day),TherapeuticCategory: antiemetic,0.00136
C[C@]12C=CC(=O)C=C1CC[C@@H]1[C@@H]2[C@@H](O)C[C@@]2(C)[C@H]1CC[C@]2(O)C(=O)COC(=O)CCCc1ccc(N(CCCl)CCCl)cc1,maximum recommended daily dose (mmol/kg-bw/day),[9],0.00515
C[C@H](CN1CCOCC1)C(C(=O)N1CCCC1)(c1ccccc1)c1ccccc1,maximum recommended daily dose (mmol/kg-bw/day),[5],0.000848
COc1ccc(CN(CCN(C)C)c2ccccn2)cc1,maximum recommended daily dose (mmol/kg-bw/day),TherapeuticCategory: antihistaminic,0.00438
CC(=O)OCC(=O)[C@@]1(O)CC[C@H]2[C@@H]3CCC4=CC(=O)CC[C@]4(C)[C@H]3C(=O)C[C@@]21C,maximum recommended daily dose (mmol/kg-bw/day),[13],0.0124
CCCCOc1ccc(C[N+]2(C)[C@@H]3CC[C@H]2CC(OC(=O)[C@H](CO)c2ccccc2)C3)cc1 (stereo partly drawn),maximum recommended daily dose (mmol/kg-bw/day),"TherapeuticCategory: antispasmotic, anticholinergic",0.000915
CCCCC(=O)O[C@]1(C(=O)CO)[C@@H](C)C[C@H]2[C@@H]3CCC4=CC(=O)C=C[C@]4(C)[C@@]3(F)[C@@H](O)C[C@@]21C,maximum recommended daily dose (mmol/kg-bw/day),[13],0.000315
C1CCC(C(CC2CCCCN2)C2CCCCC2)CC1 (stereo not drawn),maximum recommended daily dose (mmol/kg-bw/day),"TherapeuticCategory: vasodilator, Ca channel blocker, diuretic",0.018
